Test results as given in BigSolDB 2.1.

CC(=O)Nc1ccc(OC(=O)c2ccccc2OC(C)=O)cc1
solubility (mole fraction)
Details | 278.15 K | 283.15 K | 288.15 K | 293.15 K | 298.15 K | 303.15 K | 308.15 K | 313.15 K | 318.15 K
in DMF | 0.0175 | 0.0187 | 0.0201 | 0.0214 | 0.0229 | 0.0244 | 0.0258 | 0.0274 | 0.029
in NMP | 0.0222 | 0.0255 | 0.0289 | 0.0326 | 0.0368 | 0.041 | 0.0461 | 0.0515 | 0.0571
in ethanol | 0.000261 | 0.00035 | 0.000454 | 0.000588 | 0.000755 | 0.000947 | 0.0012 | 0.00151 | 0.00191
in isopropanol | 0.000141 | 0.000191 | 0.000257 | 0.000346 | 0.000456 | 0.000604 | 0.000781 | 0.00103 | 0.00131
in water | 5.59e-07 | 8.56e-07 | 1.19e-06 | 1.74e-06 | 2.45e-06 | 3.49e-06 | 4.82e-06 | 6.74e-06 | 8.99e-06
